From US9834514B2, “Antibiotic sensitivity-restoring and photosensitive agents” (New Mexico Tech Research Foundation, priority 2015, dated 2017)
Values after ≈ are worked out from the molar mass of the structure shown.

Tests used:
CRE = assay: Resensitization to antibiotics (log reduction, TABLE 29); format: cell-based; conditions: compound 20 μM
Procedure: In a 96-well microtiter plate, two-fold dilutions were made of each drug (starting with 100 μM) in 100 μL of a cell suspension in TSB. The resulting samples were incubated overnight at 37° C. on a rotary shaking incubator at 100 rpm. The samples were then visually inspected for turbidity. A 20% well volume of MTT reagent (5 mg/mL) was subsequently added, and the samples were incubated for about 20 minutes.

MRSA (ATCC BAA-44) = assay: Synergy with oxacillin and norfloxacin and other antibiotics (colony counts); format: cell-based, S. aureus; conditions: for MICs greater than cells treated with compound alone, with norfloxacin / MICs greater than cells treated with compound alone, with oxacillin: FIGS. 35-38; for Orders of Magnitude with Norfloxacin / Orders of Magnitude with Oxacillin: increase in ability to kill MRSA versus drug or compound alone
Procedure: The synergy of compounds 1 and 7-11 with oxacillin and norfloxacin was tested against MRSA (ATCC BAA-44). An overnight culture of MRSA was first diluted to about 5×10^5 CFU/mL in TSB. Then, 1 mL of the diluted broth suspension was added to a borosilicate glass culture tube. An appropriate volume of a compound or an antibiotic drug stock was added to the broth suspension and mixed using a vortex mixer. Then an appropriate volume of an antibiotic was added to test synergy with compounds 7-11. The samples were subsequently mixed using a vortex mixer, and the samples were incubated for 18 hours at 37° C. on a rotary shaking incubator. After 18 hours, the test cultures were diluted ten-fold, 10 μL of each dilution was drip-streaked onto a TSA plate, and the samples were incubated for 18 hours at 37° C. Colony counts were then performed and the CFU/mL values were calculated.
TABLE 21 details the MIC values identified in the MRSA assay of compounds 1, 7, 8, 9, 10, 11, various antibiotics, and light.

HeLa cells = assay: Toxicity (IC50) on HeLa cells; format: cell-based, human; conditions: for IC50: Homo sapiens, cancerous cervical epithelium HeLa cells
Procedure: The toxicities of the compounds of the invention were determined for human cancerous cervical epithelium HeLa and normal lung fibroblast WI38 cells. The toxicities of EPIs INF-55 and INF-55Cl were quantified as controls. […] TABLE 2 compares the toxicity of compounds 7-11 on HeLa cells and normal WI38 cells.

S. aureus (ATCC 29213) = assay: MIC against drug sensitive S. aureus; format: cell-based; conditions: Staphylococcus aureus, ATCC29213; ATCC 29213; read-out: S. aureus MIC
A. baumannii = assay: Resensitization to antibiotics (log reduction, TABLE 29); format: cell-based
[1] = system: Klebsiella pneumoniae (CRE, ATCC BAA-1705); assay: Cell killing of CRE with compounds in presence or absence of PMB (CFU/mL); format: cell-based; conditions: for PMB + Comp: PMB @ 0.2 μg/mL + Comp @ 20 µM; for Comp @ 20 µM: compound alone
Procedure: Klebsiella pneumoniae (CRE, ATCC BAA-1705) was grown in TSB overnight at 37° C. and diluted to about 5×10^5 CFU/mL using a McFarland Latex Turbidity standard (0.5). One mL of the cell suspension was transferred to a glass culture test tube. PMB was added to the cell suspension resulting in a final concentration of 200 μg/mL of PMB. The cell suspension was incubated at 37° C. on a rotary shaking incubator at 150 rpm for 4 hours. Compounds 1, 7, 8, 9, 10, and 11 were added to the cell suspension, resulting in a concentration of 20 μM for each of the compounds. The cell suspensions containing the compounds were incubated at 37° C. on a rotary shaking incubator at 150 rpm for 4 hours. Each sample was diluted tenfold to a 10^−5 dilution. Ten 10 microliters of each dilution from each sample was dripped onto a TSA plate and allowed to streak down the plate. The agar plates were incubated at 37° C. for 18-24 hours. Colony counts were performed and CFU/mL values were calculated.
The MICs of PMB and compounds 7-11 were determined against Klebsiella pneumoniae (CRE, ATCC BAA-1705). […] After the incubation with PMB, each of the compounds was added at a concentration of 20 μM, and the samples were incubated for an additional 18 hours. A sample was taken and diluted ten-fold in media. Ten microliters of each dilution was then drip-streaked onto an agar plate and incubated overnight at 37° C. Colony counts were then performed and the concentrations of cells (CFU/mL) were calculated.

VRE [2] = assay: Resensitization to antibiotics (log reduction, TABLE 29); format: cell-based, Enterococcus faecalis
MRSA = assay: as above; format: cell-based, S. aureus
drug-resistant bacteria = assay: Summary of synergistic activities with antibiotic families (TABLE 45); format: cell-based; conditions: for Synergy with Oxacillin (β-lactama): *indicated ampicillin, dicloxicillin and Penicillin G
Excerpt: TABLE 45 summarizes the synergistic activities of the seven classes of clinically used antibiotics and compounds of the invention against a variety of different drug-resistant bacteria.

VRE [3] = assay: MIC against VRE; format: cell-based, Enterococcus faecalis; conditions: Enterococcus, TABLE 23, read-out: VRE MIC
Procedure: In a 12×75 mm borosilicate glass culture tube, 1 mL of cell suspension was added. Then, compound 7 was added to the cells, and the samples were mixed using a vortex mixer. […] The samples were incubated overnight at 37° C. on a rotary shaking incubator at 100 rpm.

[4] = (⅓) MIC compound + (¼) MIC Norfloxacin
[5] = (⅓) MIC compound + (½) MIC Oxacillin
[6] = (⅛) MIC compound + (1/16) MIC Norfloxacin
[7] = (⅛) MIC compound + (⅛) MIC Oxacillin
[8] = compared to compound alone, FIGS. 34, 39, 41

## Brc1ccc(/N=N/c2c[nH]c3ccccc23)cc1 [Compound 8]
CRE; PMB (0.2 μg/mL)
  Log Reduction: 6
CRE; PME (0.2 μg/mL)
  Log Reduction: 6
MRSA (ATCC BAA-44); [4]
  % Kill: 99%
  Surviving MRSA: 1.00 × 10^−2
MRSA (ATCC BAA-44); [5]
  % Kill: 99.9%
  Surviving MRSA: 1.00 × 10^−3
MRSA (ATCC BAA-44)
  MICs greater than cells treated with compound alone, with norfloxacin: two-fold
  MICs greater than cells treated with compound alone, with oxacillin: three-fold
  Orders of Magnitude with Norfloxacin: >2
  Orders of Magnitude with Oxacillin: >3
HeLa cells
  IC50: 31.6 µM
S. aureus (ATCC 29213)
  MIC: 8 µM (≈ 2.4 µg/mL)
A. baumannii; compound 5 μM, PME (0.05 μg/mL)
  Log Reduction: 9
A. baumannii; compound 20 μM, PMB (0.2 μg/mL)
  Log Reduction: 9
[1]
  PMB + Comp: None Detected
  Comp @ 20 µM: 6.6 × 10^8 CFU/mL
VRE [2]; compound 7.5 μM, Tetracycline (1.5 μg/mL)
  Log Reduction: 3-4
VRE [2]; compound 7.5 μM, Vancomycin (3.5 μg/mL)
  Log Reduction: 3
MRSA; compound 5 μM, Norfloxacin (25 μg/mL)
  Log Reduction: 2-3
MRSA; compound 5 μM, Oxacillin (50 μg/mL)
  Log Reduction: 3-4
drug-resistant bacteria; A. baumannii ATCC 15151
  Synergy with Polymyxin B (Polypeptides): Synergy
  Synergy with Polymyxin E (Polypeptides): Synergy
drug-resistant bacteria; CRE ATCC 1705
  Synergy with Polymyxin B (Polypeptides): Synergy
  Synergy with Polymyxin E (Polypeptides): Synergy
drug-resistant bacteria; CRE ATCC 2340
  Synergy with Polymyxin B (Polypeptides): Synergy
  Synergy with Polymyxin E (Polypeptides): Synergy
drug-resistant bacteria; CRE ATCC 2341
  Synergy with Polymyxin B (Polypeptides): Synergy
  Synergy with Polymyxin E (Polypeptides): Synergy
drug-resistant bacteria; CRE ATCC 2342
  Synergy with Polymyxin B (Polypeptides): Synergy
  Synergy with Polymyxin E (Polypeptides): Synergy
drug-resistant bacteria; MRSA ATCC BAA-44
  Synergy with Norfioxacin (Fluoroquinolones): Synergy
  Synergy with Oxacillin (β-lactama): Synergy*
drug-resistant bacteria; P. aeruginosa ATCC 27853
  Synergy with Polymyxin B (Polypeptides): Synergy
  Synergy with Polymyxin E (Polypeptides): Synergy
drug-resistant bacteria; VRE ATCC 51299
  Synergy with Norfioxacin (Fluoroquinolones): Synergy
  Synergy with Tetracycline (Tetracyclines): Synergy
  Synergy with Vancomycin (Glycopeptides): Synergy
VRE [3]
  MIC: 2 µM (≈ 0.6 µg/mL)

## Clc1ccc(Oc2c(-c3ccc(Cl)cc3)[nH]c3ccccc23)cc1 [Compound 10]
CRE; PME (0.2 μg/mL)
  Log Reduction: 6
MRSA (ATCC BAA-44); [6]
  % Kill: 99.99%
  Surviving MRSA: 1.00 × 10^−8
MRSA (ATCC BAA-44); [7]
  % Kill: 99.99%
  Surviving MRSA: 1.00 × 10^−8
MRSA (ATCC BAA-44)
  MICs greater than cells treated with compound alone, with norfloxacin: eight-fold
  MICs greater than cells treated with compound alone, with oxacillin: eight-fold
  Orders of Magnitude with Norfloxacin: 8
  Orders of Magnitude with Oxacillin: 8
MRSA (ATCC BAA-44); TABLE 6
  Synergy with Norfloxacin: 5-log reduction
  Synergy with Oxacillin: 4-log reduction
MRSA (ATCC BAA-44); [8]
  log reduction in the number of surviving cells (CFU/mL), co-treatment with norfloxacin: ~5 log
  log reduction in the number of surviving cells (CFU/mL), co-treatment with oxacillin: ~4 log
HeLa cells
  IC50: 36.8 µM
HeLa cells; comparison of TABLE 2 values
  toxicity to HeLa versus normal WI38 cells: killed cancerous HeLa cells at concentrations that were not toxic to normal WI38 cells
S. aureus (ATCC 29213)
  MIC: 32 to 64 µM (≈ 11.3 to 22.7 µg/mL)
A. baumannii; compound 5 μM, PME (0.2 μg/mL)
  Log Reduction: 8
[1]
  PMB + Comp: None Detected
  Comp @ 20 µM: 7.9 × 10^8 CFU/mL
VRE [2]; compound 2 μM, Dicloxacillin (10 μg/mL)
  Log Reduction: 5
VRE [2]; compound 2 μM, Norfloxacin (5 μg/mL)
  Log Reduction: 5-6
MRSA; compound 1 μM, Norfloxacin (15 μg/mL)
  Log Reduction: 5-6
drug-resistant bacteria; A. baumannii ATCC 15151
  Synergy with Polymyxin B (Polypeptides): Synergy
  Synergy with Polymyxin E (Polypeptides): Synergy
drug-resistant bacteria; CRE ATCC 1705
  Synergy with Polymyxin B (Polypeptides): Synergy
  Synergy with Polymyxin E (Polypeptides): Synergy
drug-resistant bacteria; CRE ATCC 2340
  Synergy with Polymyxin B (Polypeptides): Synergy
  Synergy with Polymyxin E (Polypeptides): Synergy
drug-resistant bacteria; CRE ATCC 2341
  Synergy with Polymyxin B (Polypeptides): Synergy
  Synergy with Polymyxin E (Polypeptides): Synergy
drug-resistant bacteria; CRE ATCC 2342
  Synergy with Polymyxin B (Polypeptides): Synergy
  Synergy with Polymyxin E (Polypeptides): Synergy
drug-resistant bacteria; MRSA ATCC BAA-44
  Synergy with Norfioxacin (Fluoroquinolones): Synergy
  Synergy with Oxacillin (β-lactama): Synergy*
drug-resistant bacteria; P. aeruginosa ATCC 27853
  Synergy with Polymyxin B (Polypeptides): Synergy
  Synergy with Polymyxin E (Polypeptides): Synergy
drug-resistant bacteria; VRE ATCC 51299
  Synergy with Norfioxacin (Fluoroquinolones): Synergy
  Synergy with Tetracycline (Tetracyclines): Synergy
  Synergy with Vancomycin (Glycopeptides): Synergy
drug-resistant bacteria; VRE ATCC 51299, dicloxicillin
  Synergy with β-lactama (Oxacillin column; cell says dicloxicillin): Synergy
VRE [3]
  MIC: 10 to 20 µM (≈ 3.54 to 7.08 µg/mL)
